Measurements: patent publication US20030157159A1, “Prevention and treatment of digestive tract infections” (priority 2002, published 2003)

How the values were obtained:
H. pylori strain #26695 = assay: bactericidal effect of selected terpenes on H. pylori viability; format: cell-based, Helicobacter pylori; set-up: key: *NG = no growth; **TNTC = Too Numerous To Count; conditions: 10^6 cfu, 24 hours
Procedure: Five terpenes (anethole, carvone, citral, geraniol and b-ionone) were used for this study. […] The H. pylori used was strain #26695 of […], this bacteria is a motile, cag A, vac A cytotoxin-positive gram negative bacteria which colonizes gnotobiotic piglets and indefinitely persists within the gastric microenvironment as a superficial infection of the gastric mucosa and mucus layer. 1) Stock solutions of each terpene with polysorbate-80 were prepared (1.8 ml terpene plus 0.2 ml polysorbate-80. […] 3) A total of 1.0×10^6 bacteria (30 ul) was added to 970 ul terpene dilutions (final volume of 1.0 ml) in loosely capped tubes and incubated for 24 hours at 37° C. with continuous mixing. […] Bacterial colony forming units (cfu) were determined visual (counting) inspection. Recovered bacteria were confirmed to be H. pylori by catalase and urease enzyme activities.

E. coli = conditions: cited from earlier work
Traveler's Diarrhea = conditions: Ericsson, Charles (1998); cited from earlier work
[1] = tested on: E. coli strains AW574 or AW405; assay: Lysis of E. coli by terpenes (B-galactosidase/ONPG assay); format: cell-based
Text: Lysis of the cell membrane was monitored by the determination of galactosidase activity. B-galactosidase is a well-characterized cytosolic enzyme in bacteria. This enzyme is inducible in the presence of isopropyl-1-thiogalactosidase (IPTG) and assayed colorimetricaly with substrate o-nitro-phenyl-B-D-galactoside (ONPG). ONPG is cleaved to release o-nitrophenol with peak absorbance at 420 nm. Since intact E. coli is impermeable to both ONPG and the enzyme, the cells have to be lysed prior to enzymatic assay. Therefore the ability of terpenes to lyse E. coli can be measured with this enzymatic assay and compared to known lysing agents. The procedure used was as follows: E. coli strains AW574 or AW405 were cultured overnight in 10 ml tryptone broth with […] at 35° C. Cells were allowed to growth after an absorbance equal to 0.9 was reached. Cells were harvested, washed with phosphate buffer and resuspended to an absorbance equal to 0.5. One tenth of a ml of the bacteria culture was added to 0.9 ml of buffer, warmed to 30° C. and then 80 ul of terpenes (85% terpenes and 15% polysorbate-80), 80 ul water (background) or 40 ul chloroform plus 40 ul 1% SDS in water (positive control) were added. After the addition of the lysing agents the tubes were mixed for 10 seconds and 0.2 ml of ONPG (4 mg/ml water) was added, then incubated for 5 minutes. The enzyme activity was stopped with 0.5 ml of 1 M sodium carbonate. After being centrifuged for 3 minutes at 1,500×g, supernatant was transferred to cuvettes and read at 420 nm. The relative degree of lysis caused by terpenes was calculated as follows:
100×(OD terpenes−OD water)/(OD chloroform−OD water)

E. coli strain AW574 = assay: single terpene or combination against E. coli growth (O.D.); format: cell-based; conditions: single terpene 2 uMol; 24 hours; compared to the control treatment
Procedure: The objective of this example was to determine an optimum terpene mixture which could have a greater biocidal effect. E. coli strain AW574 was grown in tryptone broth to an exponential growth phase (O.D. between 0.4 and 1.0 at 590 nm). One tenth of this growth was inoculated to 10 ml of tryptone broth following by the addition of individual terpenes or as indicated on table 2; then incubated for 24 hours at 35-37° C. and the O.D. determined in each tube. The concentration of terpenes was 1 or 2 uMol. Each treatment was repeated in triplicate. The results are expressed as percentage bacterial growth as compared to the control treatment. It is observed that the combination of terpenes give better biocidal effect than single terpenes, with geraniol and carvone better than b-ionone.

H pylori = conditions: in vitro; cited from earlier work
[2] = final dilution 1:10 of stock (90% terpene plus 10% polysorbate-80)
[3] = final dilution 1:10000 of stock
[4] = final dilution 1:50000 of stock

| Compound | H. pylori growth (cfu recovered) (H. pylori strain #26695; [2]) | H. pylori growth (cfu recovered) (H. pylori strain #26695; final dilution 1:50 of stock) | H. pylori growth (cfu recovered) (H. pylori strain #26695; final dilution 1:100 of stock) | H. pylori growth (cfu recovered) (H. pylori strain #26695; final dilution 1:500 of stock) | H. pylori growth (cfu recovered) (H. pylori strain #26695; final dilution 1:1000 of stock) | H. pylori growth (cfu recovered) (H. pylori strain #26695; final dilution 1:5000 of stock) | H. pylori growth (cfu recovered) (H. pylori strain #26695; [3]) | H. pylori growth (cfu recovered) (H. pylori strain #26695; [4]) | % growth (E. coli strain AW574) [%] | further results |
| --- | --- | --- | --- | --- | --- | --- | --- | --- | --- | --- |
| CC=Cc1ccc(OC)cc1 [Anethole] | NG | NG | NG | NG | 10^3 cfu | 10^3 cfu | TNTC | TNTC | – | – |
| CC(C)=CCCC(C)=CC=O [Citral] | NG | NG | NG | NG | NG | NG | NG | TNTC | – | concentration in growth media that reduced the concentration of E. coli (E. coli): more than 0.01%; concentration with bactericidal effect (E. coli; growth media): 0.08% |
| Lactobacillus | – | – | – | – | – | – | – | – | – | Efficacy (Traveler's Diarrhea): Not proven |
| C=C(C)C1CC=C(C)C(=O)C1 (stereo not shown) [Carvone] | NG | NG | NG | NG | NG | 10^4 cfu | TNTC | TNTC | 63.00 | Relative lysis ([1]; 404 uM): 3.2%; Relative lysis ([1]; 4,040 uM): 22%; Relative lysis ([1]; 40,400 uM): 54% |
| Polysorbate-80 [reference compound] | NG* | NG | NG | 10^3 cfu | 10^4 cfu | TNTC** | TNTC | TNTC | – | Relative lysis ([1]; 80 ul Polysorbate-80): 3.2% |
| Trimethropim-sulfamethoxazole [reference compound] | – | – | – | – | – | – | – | – | – | Efficacy (Traveler's Diarrhea): 70-80% protective |
| CC(C)=CCC/C(C)=C/CO [Geraniol] | NG | NG | NG | NG | NG | NG | 10^2 cfu | TNTC | 54.00 | Relative lysis ([1]; 3.63 uM): 2.4%; Relative lysis ([1]; 36.3 uM): 4%; Relative lysis ([1]; 363 uM): 34%; Relative lysis ([1]; 3,630 uM): 98%; Relative lysis ([1]; 36,300 uM): 96%; concentration that inhibited the growth of H pylori (H pylori): 2 mg/lt. |
| CC(=O)/C=C/C1=C(C)CCCC1(C)C [b-Ionone] | NG | NG | NG | NG | NG | NG | NG | TNTC | 84.00 | Relative lysis ([1]; 0.0308 uM): 1.3%; Relative lysis ([1]; 0.308 uM): 4.78%; Relative lysis ([1]; 3.08 uM): 23%; Relative lysis ([1]; 30.8 uM): 44%; Relative lysis ([1]; 308 uM): 52% |
